Reference: patent publication US20190224164A1, “COMPOSITIONS AND METHODS FOR TREATMENT OF COPD” (Bodor Laboratories, Inc., priority 2016, published 2019)

Tested on: acetylcholine-induced bronchoconstriction
Test: Acetylcholine induced bronchoconstriction in anesthetized guinea pigs
Assay type: in vivo, guinea pig
Description: Male Hartley guinea pigs (320±120 g) (Charles River) are housed under standard conditions. Guinea pigs are anesthetized with urethane (2 g/kg, intraperitoneally), the trachea are cannulated and the animal is respired using a small animal respiratory pump (Harvard Apparatus LTD, Kent UK). Respiratory back pressure is measured and recorded using a rodent lung function recording system (MUMED, London UK). For drug administration the right jugular vein is cannulated. Following the surgical procedure, guinea pigs are allowed to stabilize for 20 minutes. Ten minutes before acetylcholine administration, the animals are disconnected from the ventilator and either the vehicle (10 mg lactose) or different amounts of the drug (suspended in the same amount of vehicle) are administered intratracheally. The trachea is reconnected to the ventilator and changes in pulmonary mechanics are followed. Acetylcholine (10 μg/kg) is administered intravenously in every 10 minutes six times. Male Hartley guinea pigs (320±120 g) (Charles River) are housed under standard conditions. Guinea pigs are anesthetized with urethane (2 g/kg, intraperitoneally), the trachea are cannulated and the animal is respired using a small animal respiratory pump (Harvard Apparatus LTD, Kent UK). Respiratory back pressure is measured and recorded using a rodent lung function recording system (MUMED, London UK). […]

In the case of C[N+]1(C)CCC(OC(=O)C(O)(c2ccccc2)C2CCCC2)C1 (centres unmarked) [glycopyrrolate], the “protective effect on the acetylcholine-induced bronchoconstriction” value (drug intratracheally ten minutes before acetylcholine (10 μg/kg i.v.)) is reported as “protective effect” and the “protective effect on the acetylcholine-induced bronchoconstriction” value (ester and zwitterion or their combination products intratracheally, acetylcholine 10 μg/kg i.v.) is reported as “protective effect”.
